{"source": "ChEMBL document CHEMBL3046474", "about": "“Development of robust QSAR model using rapid overlay of crystal structures (ROCS) based alignment: a test case of Tubulin inhibitors” (Med Chem Res, 2013)"}
{"target": "Tubulin", "test": "Inhibition of tubulin polymerization in Homo sapiens (human) solid tumor cells"}
{"smiles": "COc1ccc(Cc2cc(OC)c(OC)c(OC)c2)cc1O", "pIC50": 5.11}
{"smiles": "COc1ccc(CCCCc2cc(OC)c(OC)c(OC)c2)cc1O", "pIC50": 4.26}
{"smiles": "COc1ccc(/C=C(/C=O)c2cc(OC)c(OC)c(OC)c2)cc1", "pIC50": 5.4}
{"smiles": "COc1ccc(/C=C(/C#N)c2cc(OC)c(OC)c(OC)c2)cc1O", "pIC50": 5.3}
{"smiles": "COc1cc(/C=C\\c2ccc(C)c(N)c2)cc(OC)c1OC", "pIC50": 5.4}
{"smiles": "COc1ccc(/C=C(/C#N)c2cc(OC)c(OC)c(OC)c2)cc1N", "pIC50": 5}
{"smiles": "COc1ccc(/C=C(/C#N)c2cc(OC)c(OC)c(OC)c2)cc1", "pIC50": 5.22}
{"smiles": "COc1ccc(CCc2cc(OC)c(OC)c(OC)c2)cc1O", "pIC50": 5.48}
{"smiles": "COc1ccc(/C=C\\c2cc(OC)c(OC)c(OC)c2)cn1", "pIC50": 5.7}
{"smiles": "COc1ccc(OCc2cc(OC)c(OC)c(OC)c2)cc1O", "pIC50": 4.65}
{"smiles": "COc1ccc(\\C=C/C=C/C=C/c2cc(OC)c(OC)c(OC)c2)cc1O", "pIC50": 5}
{"smiles": "COc1cc(/C=C\\c2ccc(C)c(N=[N+]=[N-])c2)cc(OC)c1OC", "pIC50": 5.92}
{"smiles": "COc1ccc(C(O)C(O)c2cc(OC)c(OC)c(OC)c2)cc1O", "note": "(centres undefined)", "pIC50": 4.66}
{"smiles": "COc1ccc(NCc2cc(OC)c(OC)c(OC)c2)cc1O.Cl", "pIC50": 5.05}
{"smiles": "COc1cc(CNc2ccc(C)c(O)c2)cc(OC)c1OC.Cl", "pIC50": 5.46}
{"smiles": "COc1cc2ccc3cc(O)c(C)cc3c2c(OC)c1OC", "pIC50": 4}
{"smiles": "COc1cc(/C=C\\c2cccc(SC)c2)cc(OC)c1OC", "pIC50": 5.21}
{"smiles": "COc1cc(/C=C\\c2ccc(C)cc2)cc(OC)c1OC", "pIC50": 5.7}
{"smiles": "COc1cc(/C=C\\c2ccc(N(C)C)cc2)cc(OC)c1OC", "pIC50": 5.47}
{"smiles": "COc1cccc(/C=C\\c2cc(OC)c(OC)c(OC)c2)c1", "pIC50": 5.06}
{"smiles": "COc1ccc(/C(C#N)=C\\c2cc(OC)c(OC)c(OC)c2)cc1N", "pIC50": 5.3}
{"smiles": "COc1ccc(/C=C(/C(N)=O)c2cc(OC)c(OC)c(OC)c2)cc1N", "pIC50": 5.52}
{"smiles": "COc1cnc(/C=C\\c2cc(OC)c(OC)c(OC)c2)cn1", "pIC50": 5.05}
{"smiles": "COc1ncc(/C=C\\c2cc(OC)c(OC)c(OC)c2)cn1", "pIC50": 5.52}
{"smiles": "COc1ccc(/C=C\\c2cc(OC)c(OC)c(OC)c2)nc1", "pIC50": 5.52}
{"smiles": "COc1ccc(COc2cc(OC)c(OC)c(OC)c2)cc1O", "pIC50": 5.46}
{"smiles": "COc1ccc(Oc2cc(OC)c(OC)c(OC)c2)cc1O", "pIC50": 4.79}
{"smiles": "COc1cc(/C=C\\c2ccc(Cl)c(N)c2)cc(OC)c1OC", "pIC50": 5.52}
{"smiles": "COc1cc(/C=C\\c2ccn(C)c(=O)c2)cc(OC)c1OC", "pIC50": 5.7}
{"smiles": "CCCOc1ccc(/C=C\\c2cc(OC)c(OC)c(OC)c2)cc1", "pIC50": 5.22}
{"smiles": "COc1cc(/C=C\\c2ccc(Br)cc2)cc(OC)c1OC", "pIC50": 5.51}
{"smiles": "COc1ccc(NCc2cc(OC)c(OC)c(OC)c2)cc1", "pIC50": 4.64}
{"smiles": "COc1cc(/C=C\\c2ccccc2)cc(OC)c1OC", "pIC50": 4.44}
{"smiles": "COc1cc(/C=C\\c2ccc(OC(C)=O)cc2)cc(OC)c1OC", "pIC50": 4.54}
